Experimental findings from patent US12441703B2, “Carboxamides as modulators of sodium channels” (VERTEX PHARMACEUTICALS INCORPORATED, priority 2019, dated 2025) are described below.

The target of the assay is human NaV 1.8 (Homo sapiens, UniProt Q9Y5Y9). In words: E-VIPR assay for detecting and measuring NaV inhibition properties. The class given is cell-based. Conditions: E-VIPR assay conducted in the presence of human serum; HEK cells expressing truncated human NaV 1.8; read-out: IC50. The text has this: Sodium ion channels are voltage-dependent proteins that can be activated by inducing membrane voltage changes by applying electric fields. The electrical stimulation instrument and methods of use, referred to as E-VIPR, are described in International Publication No. WO 2002/008748 A3 and C.-J. Huang et al. Characterization of voltage-gated sodium channel blockers by electrical stimulation and fluorescence detection of membrane potential, 24 Nature Biotech. 439-46 (2006), both of which are incorporated by reference in their entirety. The instrument comprises a microtiter plate handler, an optical system for exciting the coumarin dye while simultaneously recording the coumarin and oxonol emissions, a waveform generator, a current- or voltage-controlled amplifier, and parallel electrode pairs that are inserted into assay plate wells. Under integrated computer control, this instrument passes user-programmed electrical stimulus protocols to cells within the wells of the microtiter plate.
human NaV 1.8, sequence (Q9Y5Y9 whole entry, looked up, the tested form may be a part): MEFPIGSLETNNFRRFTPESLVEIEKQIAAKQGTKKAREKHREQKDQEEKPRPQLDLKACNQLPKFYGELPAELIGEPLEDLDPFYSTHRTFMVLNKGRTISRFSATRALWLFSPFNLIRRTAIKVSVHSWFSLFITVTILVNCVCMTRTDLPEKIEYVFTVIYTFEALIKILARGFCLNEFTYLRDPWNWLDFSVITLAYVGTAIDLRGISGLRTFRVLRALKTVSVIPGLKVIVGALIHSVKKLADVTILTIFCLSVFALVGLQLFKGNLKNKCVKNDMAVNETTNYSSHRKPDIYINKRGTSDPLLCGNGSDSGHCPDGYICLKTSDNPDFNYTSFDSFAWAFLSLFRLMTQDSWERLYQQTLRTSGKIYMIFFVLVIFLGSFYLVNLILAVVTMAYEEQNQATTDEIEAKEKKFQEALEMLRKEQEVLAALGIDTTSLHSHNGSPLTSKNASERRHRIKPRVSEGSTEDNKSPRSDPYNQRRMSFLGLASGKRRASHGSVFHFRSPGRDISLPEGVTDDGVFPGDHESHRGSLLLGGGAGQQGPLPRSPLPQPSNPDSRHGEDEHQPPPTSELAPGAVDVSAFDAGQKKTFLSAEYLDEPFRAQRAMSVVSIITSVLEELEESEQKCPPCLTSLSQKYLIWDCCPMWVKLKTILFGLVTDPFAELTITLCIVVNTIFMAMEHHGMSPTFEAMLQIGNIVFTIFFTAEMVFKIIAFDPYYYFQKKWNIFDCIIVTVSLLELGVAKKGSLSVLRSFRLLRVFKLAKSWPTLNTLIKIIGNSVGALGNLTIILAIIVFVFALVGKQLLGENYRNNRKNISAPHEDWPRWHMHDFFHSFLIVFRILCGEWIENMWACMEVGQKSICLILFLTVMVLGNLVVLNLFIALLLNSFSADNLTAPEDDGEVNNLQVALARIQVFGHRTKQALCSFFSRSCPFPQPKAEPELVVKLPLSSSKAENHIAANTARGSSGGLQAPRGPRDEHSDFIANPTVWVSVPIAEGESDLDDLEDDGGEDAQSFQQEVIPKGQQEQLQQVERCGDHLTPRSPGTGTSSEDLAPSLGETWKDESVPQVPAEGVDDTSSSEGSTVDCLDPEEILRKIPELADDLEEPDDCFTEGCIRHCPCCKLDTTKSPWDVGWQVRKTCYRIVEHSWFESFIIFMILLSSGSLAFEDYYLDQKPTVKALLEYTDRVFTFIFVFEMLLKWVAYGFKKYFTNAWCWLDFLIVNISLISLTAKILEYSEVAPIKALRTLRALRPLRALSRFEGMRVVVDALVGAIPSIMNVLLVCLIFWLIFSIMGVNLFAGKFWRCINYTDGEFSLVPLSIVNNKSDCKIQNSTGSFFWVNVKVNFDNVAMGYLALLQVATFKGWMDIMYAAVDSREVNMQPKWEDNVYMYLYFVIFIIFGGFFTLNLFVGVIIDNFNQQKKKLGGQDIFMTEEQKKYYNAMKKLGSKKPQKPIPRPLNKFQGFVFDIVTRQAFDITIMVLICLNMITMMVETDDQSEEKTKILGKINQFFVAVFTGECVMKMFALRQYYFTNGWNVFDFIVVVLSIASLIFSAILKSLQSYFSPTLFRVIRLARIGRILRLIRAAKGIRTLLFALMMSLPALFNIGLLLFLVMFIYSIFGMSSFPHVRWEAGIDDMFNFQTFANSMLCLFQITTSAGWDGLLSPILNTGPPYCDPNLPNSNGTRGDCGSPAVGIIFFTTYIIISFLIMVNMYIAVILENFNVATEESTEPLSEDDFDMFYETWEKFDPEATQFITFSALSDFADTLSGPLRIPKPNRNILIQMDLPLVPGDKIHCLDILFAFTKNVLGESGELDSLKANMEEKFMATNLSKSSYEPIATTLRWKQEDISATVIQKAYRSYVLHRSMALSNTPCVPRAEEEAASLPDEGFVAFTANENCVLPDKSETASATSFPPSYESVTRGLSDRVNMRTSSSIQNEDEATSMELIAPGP
16-20 hours prior to running the assay on E-VIPR, HEK cells expressing a truncated form of human NaV 1.8 with full channel activity were seeded into microtiter 384-well plates, pre-coated with matrigel, at a density of 25,000 cells per well. 2.5-5% KIR2.1 Bacmam virus was added to the final cell suspension before seeding into cell plates. HEK cells were grown in Dulbecco's Modified Eagle's Medium (DMEM) supplemented with 10% FBS (Fetal Bovine Serum, qualified; Sigma #F4135), 1% NEAA (Non-Essential Amino Acids, Gibco #11140), 1% HEPES (Gibco #15630), 1% Pen-Strep (Penicillin-Streptomycin; Gibco #15140) and 5 μg/ml Blasticidin (Gibco #R210-01). Cells were expanded in vented cap cell culture flasks, with 90-95% humidity and 5% CO2.
Compound Loading Buffer (2× concentration): Na/TMA Cl Bath1 Buffer containing HS (omitted in experiments run in the absence of human serum (HS)) 50%, VABSC-1 1 mM, BSA 0.2 mg/ml (in Bath-1), KCl 9 mM, DMSO 0.75%.
• 1) To reach the final concentration in each well, 400 nL of each compound was pre-spotted (in neat DMSO) into polypropylene compound plates at 250× desired final concentration from an intermediate stock concentration of 0.075 mM, in an 11 point dose response, 3-fold dilution, resulting in a top dose of 300 nM final concentration in the cell plate. Vehicle control (neat DMSO), and positive control (an established NaV1.8 inhibitor, 25 μM final in assay in DMSO) were added manually to the outermost columns of each plate respectively. The compound plate was backfilled with 45 μL per well of Compound Loading Buffer resulting in a 250 fold dilution of compound following a 1:1 transfer of compound into the cell plate (see Step 6). Final DMSO concentration for all wells in the assay was 0.625% (0.75% DMSO was supplemented to the Compound Loading Buffer for a final DMSO concentration of 0.625%). This assay dilution protocol was adjusted to enable a higher dose range to be tested in the presence of HS or if the final assay volume was altered. • 2) Hexyl Dye Solution was prepared. • 3) Cell plates were prepared. On the day of the assay, the media was aspirated, and the cells were washed three times with 80 μL of Bath-1 buffer, maintaining 25 μL residual volume in each well. • 4) 25 μL per well of Hexyl Dye Solution was dispensed into the cell plates. The cells were incubated for 20 minutes at room temperature or ambient conditions in darkness. • 5) 45 μL per well of Compound Loading Buffer was dispensed into compound plates. • 6) The cell plates were washed three times with 80 μL per well of Bath-1 Buffer, leaving 25 µL of residual volume. Then 25 μL per well from compound plate was transferred to each cell plate. The mixture was incubated for 30 minutes at room temperature/ambient conditions. • 7) The cell plate containing compound was read on E-VIPR using the current-controlled amplifier to deliver stimulation wave pulses using a symmetrical biphasic waveform. […]
A word on the IC50: it is the concentration that gives 50% inhibition. In the case of `CC(C)Oc1ccc(Oc2ccc(C(F)(F)F)c(F)c2C(=O)Nc2ccnc(C(N)=O)c2)cc1` [Compound 37, 4-[[2-fluoro-6-(4-isopropoxyphenoxy)-3-(trifluoromethyl)benzoyl]amino]pyridine-2-carboxamide], the IC50 came out at 26 nM.
The value for `CCOc1ccc(Oc2ccc(C(F)(F)F)c(F)c2C(=O)Nc2ccnc(C(N)=O)c2)cc1Cl` [Compound 38, 4-[[6-(3-chloro-4-ethoxy-phenoxy)-2-fluoro-3-(trifluoromethyl)benzoyl]amino]pyridine-2-carboxamide] was 43 nM; that for `NC(=O)c1cc(NC(=O)c2c(Oc3ccc(C(F)(F)F)nc3)ccc(C(F)(F)F)c2F)ccn1` [Compound 39, 4-[[2-fluoro-3-(trifluoromethyl)-6-[[6-(trifluoromethyl)-3-pyridyl]oxy]benzoyl]amino]pyridine-2-carboxamide] was above 3000 nM; that for `NC(=O)c1cc(NC(=O)c2c(Oc3cccc(C4CCCCC4)c3)ccc(C(F)(F)F)c2F)ccn1` [Compound 40, 4-[[6-(3-cyclohexylphenoxy)-2-fluoro-3-(trifluoromethyl)benzoyl]amino]pyridine-2-carboxamide] was above 3000 nM.
The same measure for `NC(=O)c1cc(NC(=O)c2c(Oc3ccc(OC(F)(F)F)cc3C3CC3)ccc(C(F)(F)F)c2F)ccn1` [Compound 41, 4-[[6-[2-cyclopropyl-4-(trifluoromethoxy)phenoxy]-2-fluoro-3-(trifluoromethyl)benzoyl]amino]pyridine-2-carboxamide]: 10 nM; for `Cc1c(Oc2ccc(C(F)(F)F)c(F)c2C(=O)Nc2ccnc(C(N)=O)c2)ccc(F)c1F` [Compound 42, 4-[[6-(3,4-difluoro-2-methyl-phenoxy)-2-fluoro-3-(trifluoromethyl)benzoyl]amino]pyridine-2-carboxamide]: 8 nM; for `COc1cc(Cl)ccc1Oc1ccc(C(F)(F)F)c(F)c1C(=O)Nc1ccnc(C(N)=O)c1` [Compound 43, 4-[[6-(4-chloro-2-methoxy-phenoxy)-2-fluoro-3-(trifluoromethyl)benzoyl]amino]pyridine-2-carboxamide]: 13 nM.
The value for `COc1cc(C(F)(F)C(F)(F)F)ccc1Oc1ccc(C(F)(F)F)c(F)c1C(=O)Nc1ccnc(C(N)=O)c1` [Compound 44, 4-[[2-fluoro-6-[2-methoxy-4-(1,1,2,2,2-pentafluoroethyl)phenoxy]-3-(trifluoromethyl)benzoyl]amino]pyridine-2-carboxamide] was 22 nM; that for `COc1cc(C)cc(OC)c1Oc1ccc(C(F)(F)F)c(F)c1C(=O)Nc1ccnc(C(N)=O)c1` [Compound 45, 4-[[6-(2,6-dimethoxy-4-methyl-phenoxy)-2-fluoro-3-(trifluoromethyl)benzoyl]amino]pyridine-2-carboxamide] was above 3000 nM; that for `NC(=O)c1cc(NC(=O)c2c(Oc3c(F)cc(F)cc3F)ccc(C(F)(F)F)c2F)ccn1` [Compound 46, 4-[[2-fluoro-3-(trifluoromethyl)-6-(2,4,6-trifluorophenoxy)benzoyl]amino]pyridine-2-carboxamide] was above 3000 nM.
Take `Cc1cc(Cl)cc(Cl)c1Oc1ccc(C(F)(F)F)c(F)c1C(=O)Nc1ccnc(C(N)=O)c1` [Compound 47, 4-[[6-(2,4-dichloro-6-methyl-phenoxy)-2-fluoro-3-(trifluoromethyl)benzoyl]amino]pyridine-2-carboxamide]: the IC50 worked out at 1400 nM.
The value for `Cc1c(F)ccc(Oc2ccc(C(F)(F)F)c(F)c2C(=O)Nc2ccnc(C(N)=O)c2)c1C` [Compound 48, 4-[[2-fluoro-6-(4-fluoro-2,3-dimethyl-phenoxy)-3-(trifluoromethyl)benzoyl]amino]pyridine-2-carboxamide] was 50 nM; that for `NC(=O)c1cc(NC(=O)c2c(Oc3ccc(F)c(F)c3F)ccc(C(F)(F)F)c2F)ccn1` [Compound 49, 4-[[2-fluoro-3-(trifluoromethyl)-6-(2,3,4-trifluorophenoxy)benzoyl]amino]pyridine-2-carboxamide] was 42 nM.
The value for `Cc1cc(Cl)ccc1Oc1ccc(C(F)(F)F)c(F)c1C(=O)Nc1ccnc(C(N)=O)c1` [Compound 50, 4-[[6-(4-chloro-2-methyl-phenoxy)-2-fluoro-3-(trifluoromethyl)benzoyl]amino]pyridine-2-carboxamide] was 33 nM.
The same measure for `NC(=O)c1cc(NC(=O)c2c(Oc3ccc(Cl)cc3F)ccc(C(F)(F)F)c2F)ccn1` [Compound 51, 4-[[6-(4-chloro-2-fluoro-phenoxy)-2-fluoro-3-(trifluoromethyl)benzoyl]amino]pyridine-2-carboxamide]: 200 nM; for `COc1cc(F)ccc1Oc1ccc(C(F)(F)F)c(OC)c1C(=O)Nc1ccnc(C(N)=O)c1` [Compound 52, 4-[[6-(4-fluoro-2-methoxy-phenoxy)-2-methoxy-3-(trifluoromethyl)benzoyl]amino]pyridine-2-carboxamide]: 170 nM; for `COc1c(C(F)(F)F)ccc(Oc2ccc(OC(C)C)cc2)c1C(=O)Nc1ccnc(C(N)=O)c1` [Compound 53, 4-[[6-(4-isopropoxyphenoxy)-2-methoxy-3-(trifluoromethyl)benzoyl]amino]pyridine-2-carboxamide]: 110 nM.
As for `COc1ccc(Cl)cc1Oc1ccc(C(F)(F)F)c(OC)c1C(=O)Nc1ccnc(C(N)=O)c1` [Compound 54, 4-[[6-(5-chloro-2-methoxy-phenoxy)-2-methoxy-3-(trifluoromethyl)benzoyl]amino]pyridine-2-carboxamide], the half-inhibitory concentration (IC50) was 510 nM.
Take `COc1c(C(F)(F)F)ccc(Oc2ccc(F)c(F)c2)c1C(=O)Nc1ccnc(C(N)=O)c1` [Compound 55, 4-[[6-(3,4-difluorophenoxy)-2-methoxy-3-(trifluoromethyl)benzoyl]amino]pyridine-2-carboxamide]: the IC50 is 420 nM.
For `COc1c(C(F)(F)F)ccc(Oc2ccc(OC(C)C)c(Cl)c2)c1C(=O)Nc1ccnc(C(N)=O)c1` [Compound 56, 4-[[6-(3-chloro-4-isopropoxy-phenoxy)-2-methoxy-3-(trifluoromethyl)benzoyl]amino]pyridine-2-carboxamide], the IC50 amounted to 48 nM.
The same measure for `COc1c(C(F)(F)F)ccc(Oc2ccc(F)c(Cl)c2)c1C(=O)Nc1ccnc(C(N)=O)c1` [Compound 57, 4-[[6-(3-chloro-4-fluoro-phenoxy)-2-methoxy-3-(trifluoromethyl)benzoyl]amino]pyridine-2-carboxamide]: 350 nM; for `COc1c(Oc2ccc(C(F)(F)F)c(OC)c2C(=O)Nc2ccnc(C(N)=O)c2)ccc(F)c1F` [Compound 58, 4-[[6-(3,4-difluoro-2-methoxy-phenoxy)-2-methoxy-3-(trifluoromethyl)benzoyl]amino]pyridine-2-carboxamide]: 150 nM.
The value for `COc1c(C(F)(F)F)ccc(Oc2ccc(F)cc2Cl)c1C(=O)Nc1ccnc(C(N)=O)c1` [Compound 59, 4-[[6-(2-chloro-4-fluoro-phenoxy)-2-methoxy-3-(trifluoromethyl)benzoyl]amino]pyridine-2-carboxamide] was 100 nM; that for `COc1c(C(F)(F)F)ccc(Oc2ccc(OC3CCCCC3)cc2)c1C(=O)Nc1ccnc(C(N)=O)c1` [Compound 60, 4-[[6-[4-(cyclohexoxy)phenoxy]-2-methoxy-3-(trifluoromethyl)benzoyl]amino]pyridine-2-carboxamide] was 520 nM.
For the compound `COc1c(C(F)(F)F)ccc(Oc2ccc(F)c(C)c2)c1C(=O)Nc1ccnc(C(N)=O)c1` [Compound 61, 4-[[6-(4-fluoro-3-methyl-phenoxy)-2-methoxy-3-(trifluoromethyl)benzoyl]amino]pyridine-2-carboxamide], the half-inhibitory concentration (IC50) was 490 nM.
